Tests used:
[1] = molecular target: ATP synthase F(1) complex subunit alpha, mitochondrial (Homo sapiens) (UniProt P25705)
[2] = molecular target: Bone marrow stromal antigen 2 (Homo sapiens) (UniProt Q10589)
[3] = molecular target: Cyclin-H (Homo sapiens) (UniProt P51946)
[4] = molecular target: CDP-diacylglycerol--inositol 3-phosphatidyltransferase (Homo sapiens) (UniProt O14735)
[5] = molecular target: Chloride intracellular channel protein 4 (Homo sapiens) (UniProt Q9Y696)
[6] = molecular target: Glucose-6-phosphate isomerase (Homo sapiens) (UniProt P06744)
[7] = molecular target: Heat shock protein HSP 90-beta (Homo sapiens) (UniProt P08238)
[8] = molecular target: Importin-7 (Homo sapiens) (UniProt O95373)
[9] = molecular target: Microtubule-associated protein 1B (Homo sapiens) (UniProt P46821)
[10] = molecular target: Metaxin-2 (Homo sapiens) (UniProt O75431)
Chain of Metaxin-2 (Homo sapiens) (O75431 whole entry): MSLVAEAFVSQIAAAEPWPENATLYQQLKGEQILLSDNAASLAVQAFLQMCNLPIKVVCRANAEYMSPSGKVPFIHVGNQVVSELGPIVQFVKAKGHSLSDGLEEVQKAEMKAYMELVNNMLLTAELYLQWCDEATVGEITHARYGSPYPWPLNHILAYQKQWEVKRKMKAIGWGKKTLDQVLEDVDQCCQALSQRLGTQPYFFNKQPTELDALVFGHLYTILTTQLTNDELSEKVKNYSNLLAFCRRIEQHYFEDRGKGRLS

[11] = molecular target: Nucleosome assembly protein 1-like 1 (Homo sapiens) (UniProt P55209)
Chain of Nucleosome assembly protein 1-like 1 (Homo sapiens) (P55209 whole entry): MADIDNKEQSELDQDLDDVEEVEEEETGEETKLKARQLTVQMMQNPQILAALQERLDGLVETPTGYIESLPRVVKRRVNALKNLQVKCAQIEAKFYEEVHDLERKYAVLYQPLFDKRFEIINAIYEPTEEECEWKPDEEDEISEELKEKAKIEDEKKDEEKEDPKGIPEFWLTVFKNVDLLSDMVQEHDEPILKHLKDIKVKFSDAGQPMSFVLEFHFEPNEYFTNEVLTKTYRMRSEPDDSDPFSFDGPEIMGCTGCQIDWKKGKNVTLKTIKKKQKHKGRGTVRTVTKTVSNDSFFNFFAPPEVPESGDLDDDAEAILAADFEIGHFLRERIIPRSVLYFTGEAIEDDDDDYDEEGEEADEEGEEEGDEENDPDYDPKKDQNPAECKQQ

[12] = molecular target: Nucleophosmin (Homo sapiens) (UniProt P06748)
Chain of Nucleophosmin (Homo sapiens) (P06748 whole entry): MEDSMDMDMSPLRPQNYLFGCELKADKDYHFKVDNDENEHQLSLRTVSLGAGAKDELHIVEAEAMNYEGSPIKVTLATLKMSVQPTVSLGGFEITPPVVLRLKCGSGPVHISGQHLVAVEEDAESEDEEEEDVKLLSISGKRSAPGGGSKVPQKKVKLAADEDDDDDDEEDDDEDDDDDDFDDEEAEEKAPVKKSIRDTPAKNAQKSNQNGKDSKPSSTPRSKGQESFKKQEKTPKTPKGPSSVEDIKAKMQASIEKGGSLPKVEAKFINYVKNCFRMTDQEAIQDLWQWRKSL

[13] = molecular target: Nuclear pore complex protein Nup160 (Homo sapiens) (UniProt Q12769)
Chain of Nuclear pore complex protein Nup160 (Homo sapiens) (Q12769 whole entry, one chain of several): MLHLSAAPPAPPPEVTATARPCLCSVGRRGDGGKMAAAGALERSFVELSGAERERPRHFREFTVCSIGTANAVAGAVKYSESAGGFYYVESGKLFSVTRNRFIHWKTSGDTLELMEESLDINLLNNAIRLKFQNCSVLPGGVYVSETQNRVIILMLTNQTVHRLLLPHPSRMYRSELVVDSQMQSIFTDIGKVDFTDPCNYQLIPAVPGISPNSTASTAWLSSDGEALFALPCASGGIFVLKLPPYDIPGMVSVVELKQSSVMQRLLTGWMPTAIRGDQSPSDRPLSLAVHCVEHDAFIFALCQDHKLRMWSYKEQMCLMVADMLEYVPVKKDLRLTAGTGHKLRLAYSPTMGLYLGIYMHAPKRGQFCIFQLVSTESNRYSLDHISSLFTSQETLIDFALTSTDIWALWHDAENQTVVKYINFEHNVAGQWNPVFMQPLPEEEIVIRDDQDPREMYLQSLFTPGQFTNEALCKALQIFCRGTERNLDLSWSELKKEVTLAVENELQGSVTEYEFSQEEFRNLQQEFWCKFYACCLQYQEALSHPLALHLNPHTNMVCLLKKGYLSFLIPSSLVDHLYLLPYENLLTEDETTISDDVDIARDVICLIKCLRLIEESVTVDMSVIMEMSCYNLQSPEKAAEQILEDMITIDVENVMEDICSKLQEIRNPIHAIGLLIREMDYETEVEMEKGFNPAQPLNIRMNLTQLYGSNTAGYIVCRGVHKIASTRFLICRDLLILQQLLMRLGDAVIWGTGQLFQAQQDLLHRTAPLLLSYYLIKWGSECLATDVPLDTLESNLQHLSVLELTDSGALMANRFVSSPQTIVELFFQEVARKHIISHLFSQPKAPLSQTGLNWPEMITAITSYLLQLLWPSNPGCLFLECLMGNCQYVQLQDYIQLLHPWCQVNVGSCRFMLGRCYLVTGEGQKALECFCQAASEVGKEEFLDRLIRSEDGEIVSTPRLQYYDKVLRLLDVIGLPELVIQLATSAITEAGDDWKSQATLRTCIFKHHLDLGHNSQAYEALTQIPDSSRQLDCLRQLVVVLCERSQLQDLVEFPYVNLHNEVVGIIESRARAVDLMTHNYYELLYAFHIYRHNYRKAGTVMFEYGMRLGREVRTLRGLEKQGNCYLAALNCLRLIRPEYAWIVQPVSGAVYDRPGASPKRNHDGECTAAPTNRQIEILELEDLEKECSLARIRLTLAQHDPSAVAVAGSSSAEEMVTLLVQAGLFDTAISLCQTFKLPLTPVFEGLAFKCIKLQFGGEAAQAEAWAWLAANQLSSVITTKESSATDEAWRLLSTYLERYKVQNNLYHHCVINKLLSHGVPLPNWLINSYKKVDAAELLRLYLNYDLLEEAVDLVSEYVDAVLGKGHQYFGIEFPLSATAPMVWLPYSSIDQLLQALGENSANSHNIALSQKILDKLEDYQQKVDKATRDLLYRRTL

[14] = molecular target: Bifunctional phosphoribosylaminoimidazole carboxylase/phosphoribosylaminoimidazole succinocarboxamide synthetase (Homo sapiens) (UniProt P22234)
Chain of Bifunctional phosphoribosylaminoimidazole carboxylase/phosphoribosylaminoimidazole succinocarboxamide synthetase (Homo sapiens) (P22234 whole entry): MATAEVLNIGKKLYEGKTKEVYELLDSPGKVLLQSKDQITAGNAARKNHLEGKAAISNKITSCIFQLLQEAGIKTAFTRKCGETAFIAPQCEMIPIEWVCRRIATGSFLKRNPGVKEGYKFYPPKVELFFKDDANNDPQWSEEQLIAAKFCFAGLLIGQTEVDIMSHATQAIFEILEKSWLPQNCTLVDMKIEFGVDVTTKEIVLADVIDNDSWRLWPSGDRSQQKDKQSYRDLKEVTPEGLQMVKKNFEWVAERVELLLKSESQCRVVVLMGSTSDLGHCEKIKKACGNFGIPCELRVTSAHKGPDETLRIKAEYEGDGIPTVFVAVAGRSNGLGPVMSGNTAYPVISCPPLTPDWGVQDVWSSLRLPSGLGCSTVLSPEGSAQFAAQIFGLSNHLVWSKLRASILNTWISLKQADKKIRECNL

[15] = molecular target: GPI-anchor transamidase (Homo sapiens) (UniProt Q92643)
Chain of GPI-anchor transamidase (Homo sapiens) (Q92643 whole entry): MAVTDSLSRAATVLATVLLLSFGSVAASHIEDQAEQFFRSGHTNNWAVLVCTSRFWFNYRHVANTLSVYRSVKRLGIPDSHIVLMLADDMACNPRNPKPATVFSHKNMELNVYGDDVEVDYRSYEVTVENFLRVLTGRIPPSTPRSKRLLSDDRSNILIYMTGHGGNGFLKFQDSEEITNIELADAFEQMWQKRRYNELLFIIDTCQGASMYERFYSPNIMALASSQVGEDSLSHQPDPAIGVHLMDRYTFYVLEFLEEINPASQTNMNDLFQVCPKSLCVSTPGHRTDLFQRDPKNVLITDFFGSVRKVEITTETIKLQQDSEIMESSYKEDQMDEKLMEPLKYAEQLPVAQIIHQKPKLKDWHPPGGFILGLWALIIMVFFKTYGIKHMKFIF

[16] = molecular target: Proteasome subunit alpha type-3 (Homo sapiens) (UniProt P25788)
[17] = molecular target: Proteasome subunit alpha type-7 (Homo sapiens) (UniProt O14818)
Chain of Proteasome subunit alpha type-7 (Homo sapiens) (O14818 whole entry): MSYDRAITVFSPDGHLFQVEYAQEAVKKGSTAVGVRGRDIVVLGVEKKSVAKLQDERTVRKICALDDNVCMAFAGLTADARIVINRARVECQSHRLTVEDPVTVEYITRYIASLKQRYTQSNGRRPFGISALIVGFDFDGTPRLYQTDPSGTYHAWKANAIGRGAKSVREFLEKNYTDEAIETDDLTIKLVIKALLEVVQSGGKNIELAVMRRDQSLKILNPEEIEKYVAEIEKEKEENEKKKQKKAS

[18] = molecular target: Prothymosin alpha (Homo sapiens) (UniProt P06454)
Chain of Prothymosin alpha (Homo sapiens) (P06454 whole entry): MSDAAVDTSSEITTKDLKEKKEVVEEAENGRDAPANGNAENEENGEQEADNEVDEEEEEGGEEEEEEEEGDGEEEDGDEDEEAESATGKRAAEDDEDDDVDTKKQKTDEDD

[19] = molecular target: E3 ubiquitin-protein ligase RNF213 (Homo sapiens) (UniProt Q63HN8)
[20] = molecular target: Large ribosomal subunit protein eL8 (Homo sapiens) (UniProt P62424)
[21] = molecular target: Signal peptidase complex catalytic subunit SEC11A (Homo sapiens) (UniProt P67812)
Chain of Signal peptidase complex catalytic subunit SEC11A (Homo sapiens) (P67812 whole entry, one chain of several): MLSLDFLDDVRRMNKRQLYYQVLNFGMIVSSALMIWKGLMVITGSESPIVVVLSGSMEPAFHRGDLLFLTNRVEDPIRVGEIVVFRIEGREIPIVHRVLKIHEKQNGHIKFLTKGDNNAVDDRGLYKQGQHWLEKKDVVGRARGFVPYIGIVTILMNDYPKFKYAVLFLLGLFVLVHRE

[22] = molecular target: tRNA (guanosine(18)-2'-O)-methyltransferase TARBP1 (Homo sapiens) (UniProt Q13395)
[23] = molecular target: T-complex protein 1 subunit alpha (Homo sapiens) (UniProt P17987)
[24] = molecular target: Testis-expressed protein 264 (Homo sapiens) (UniProt Q9Y6I9)
Chain of Testis-expressed protein 264 (Homo sapiens) (Q9Y6I9 whole entry): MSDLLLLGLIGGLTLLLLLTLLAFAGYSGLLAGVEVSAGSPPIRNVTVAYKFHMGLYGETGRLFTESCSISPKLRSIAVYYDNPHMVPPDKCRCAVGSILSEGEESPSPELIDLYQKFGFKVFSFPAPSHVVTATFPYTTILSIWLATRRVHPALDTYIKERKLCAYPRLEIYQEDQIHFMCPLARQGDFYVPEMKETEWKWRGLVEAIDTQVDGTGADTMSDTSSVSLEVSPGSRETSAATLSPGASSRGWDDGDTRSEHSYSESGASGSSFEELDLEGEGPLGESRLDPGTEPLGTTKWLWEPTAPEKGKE

[25] = molecular target: Putative protein-lysine deacylase ABHD14B (Homo sapiens) (UniProt Q96IU4)
[26] = molecular target: Activator of 90 kDa heat shock protein ATPase homolog 1 (Homo sapiens) (UniProt O95433)
[27] = molecular target: AP-3 complex subunit delta-1 (Homo sapiens) (UniProt O14617)
[28] = molecular target: Cyclin-I (Homo sapiens) (UniProt Q14094)
[29] = molecular target: Choline/ethanolaminephosphotransferase 1 (Homo sapiens) (UniProt Q9Y6K0)
[30] = molecular target: H/ACA ribonucleoprotein complex subunit 1 (Homo sapiens) (UniProt Q9NY12)
[31] = molecular target: Transmembrane protein 94 (Homo sapiens) (UniProt Q12767)
[32] = molecular target: Protein CIP2A (Homo sapiens) (UniProt Q8TCG1)
[33] = molecular target: Activated RNA polymerase II transcriptional coactivator p15 (Homo sapiens) (UniProt P53999)
[34] = molecular target: Rho guanine nucleotide exchange factor 1 (Homo sapiens) (UniProt Q92888)
[35] = molecular target: V-type proton ATPase 16 kDa proteolipid subunit c (Homo sapiens) (UniProt P27449)
[36] = molecular target: Elongation factor G, mitochondrial (Homo sapiens) (UniProt Q96RP9)
[37] = molecular target: HLA class I histocompatibility antigen, B alpha chain (Homo sapiens) (UniProt P01889)
[38] = molecular target: Lysine-specific histone demethylase 1A (Homo sapiens) (UniProt O60341)
[39] = molecular target: La-related protein 7 (Homo sapiens) (UniProt Q4G0J3)
[40] = molecular target: Membrane-bound glycerophospholipid O-acyltransferase 1 (Homo sapiens) (UniProt Q6ZNC8)
[41] = molecular target: Prospero homeobox protein 1 (Homo sapiens) (UniProt Q92786)
[42] = molecular target: Replication factor C subunit 1 (Homo sapiens) (UniProt P35251)
[43] = molecular target: Sorting nexin-2 (Homo sapiens) (UniProt O60749)
[44] = molecular target: Receptor for retinol uptake STRA6 (Homo sapiens) (UniProt Q9BX79)
[45] = molecular target: Mitochondrial import inner membrane translocase subunit Tim10 (Homo sapiens) (UniProt P62072)
[46] = molecular target: Zinc finger CCHC domain-containing protein 8 (Homo sapiens) (UniProt Q6NZY4)
Also: assay method not described here.

Chain of ATP synthase F(1) complex subunit alpha, mitochondrial (Homo sapiens) (P25705 whole entry, one chain of several): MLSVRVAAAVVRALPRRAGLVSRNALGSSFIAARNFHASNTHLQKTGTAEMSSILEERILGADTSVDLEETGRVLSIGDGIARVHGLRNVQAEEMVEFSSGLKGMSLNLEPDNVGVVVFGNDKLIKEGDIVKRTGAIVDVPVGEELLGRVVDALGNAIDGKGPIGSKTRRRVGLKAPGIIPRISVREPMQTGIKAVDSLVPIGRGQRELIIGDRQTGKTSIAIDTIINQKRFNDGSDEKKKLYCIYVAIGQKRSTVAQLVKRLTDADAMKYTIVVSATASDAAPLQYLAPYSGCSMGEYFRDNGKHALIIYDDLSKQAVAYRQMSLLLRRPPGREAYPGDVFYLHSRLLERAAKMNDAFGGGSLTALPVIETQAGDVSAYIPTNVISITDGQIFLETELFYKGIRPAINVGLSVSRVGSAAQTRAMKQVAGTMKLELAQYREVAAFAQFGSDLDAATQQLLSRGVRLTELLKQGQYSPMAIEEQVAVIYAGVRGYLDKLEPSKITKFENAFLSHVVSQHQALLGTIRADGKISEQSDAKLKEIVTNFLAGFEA
Chain of Cyclin-H (Homo sapiens) (P51946 whole entry): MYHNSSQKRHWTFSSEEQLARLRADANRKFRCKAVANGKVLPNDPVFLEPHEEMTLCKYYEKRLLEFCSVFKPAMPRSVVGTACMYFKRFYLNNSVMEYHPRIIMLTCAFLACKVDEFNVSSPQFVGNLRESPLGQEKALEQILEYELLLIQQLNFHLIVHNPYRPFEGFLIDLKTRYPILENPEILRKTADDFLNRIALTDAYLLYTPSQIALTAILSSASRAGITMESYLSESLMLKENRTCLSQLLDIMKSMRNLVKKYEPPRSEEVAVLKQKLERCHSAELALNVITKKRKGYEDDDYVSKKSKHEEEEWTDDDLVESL

## Cc1ccc(C(=O)Nc2cccc(C(F)(F)F)c2)cc1Nc1nc(-c2cccnc2)nc2nn(C)cc12
[1]
  ED50: 1740 nM
[2]
  ED50: 1.25 mM
[3]
  ED50: 13.2 µM
[4]
  ED50: 58.1 nM
[5]
  ED50: 53.4 nM
[6]
  ED50: 36.5 mM
[7]
  ED50: 83 nM
[8]
  ED50: 18.1 nM
[9]
  ED50: 10 nM
[10]
  ED50: 1770 nM
[11]
  ED50: 147 µM
[12]
  ED50: 104 µM
[13]
  ED50: 160 µM
[14]
  ED50: 54.8 nM
[15]
  ED50: 83.9 nM
[16]
  ED50: 8.4 nM
[17]
  ED50: 17.5 µM
[18]
  ED50: 19.9 µM
[19]
  ED50: 0.595 µM
[20]
  ED50: 9.78 µM
[21]
  ED50: 6.74 µM
[22]
  ED50: 63.1 µM
[23]
  ED50: 82 nM
[24]
  ED50: 53.9 nM

## Cc1ccc(C(=O)Nc2cccc(C(F)(F)F)c2)cc1Nc1nc(-c2cccnc2)nc2c1cnn2C
[25]
  ED50: 5.47 mM
[26]
  ED50: 44.8 µM
[27]
  ED50: 5.84 nM
[1]
  ED50: 1480 nM
[3]
  ED50: 0.0553 µM
[28]
  ED50: 26.5 µM
[4]
  ED50: 0.993 nM
[29]
  ED50: 3.97 nM
[30]
  ED50: 181 nM
[6]
  ED50: 0.00455 mM
[7]
  ED50: 0.546 nM
[31]
  ED50: 77.6 nM
[32]
  ED50: 12.6 µM
[9]
  ED50: 24.4 nM
[10]
  ED50: 10.1 nM
[11]
  ED50: 3.1 µM
[12]
  ED50: 0.00826 µM
[13]
  ED50: 0.878 µM
[14]
  ED50: 20.5 nM
[15]
  ED50: 3430 nM
[17]
  ED50: 94.2 µM
[18]
  ED50: 11.1 µM
[19]
  ED50: 53.8 µM
[20]
  ED50: 2.57 µM
[21]
  ED50: 430 µM
[33]
  ED50: 1.09 mM
[22]
  ED50: 18.4 µM
[23]
  ED50: 23.4 nM
[24]
  ED50: 5040 nM
[34]
  ED50: 1700 nM
[35]
  ED50: 2700 nM
[36]
  ED50: 136 nM
[37]
  ED50: 9.82 nM
[38]
  ED50: 0.417 nM
[39]
  ED50: 13.7 µM
[40]
  ED50: 900 nM
[41]
  ED50: 6.66 µM
[42]
  ED50: 132 nM
[43]
  ED50: 0.171 nM
[44]
  ED50: 73.5 nM
[45]
  ED50: 27.9 nM
[46]
  ED50: 16.9 µM
